{"source": "patent US6095147A", "about": "“Method for photo-altering a biological system to improve biological effect” (The Regents of the University of California, priority 1994, dated 2000)", "key": {"conjunctiva": {"system": "conjunctiva", "assay": "Posterior lip sclerectomy (filtration surgery) with preoperative SnET2 injection and postoperative laser irradiation", "format": "in vivo, rabbit", "details": "665 nm, 100 mW/cm^2", "experimental": "(§1) Pharmacokinetics of the photosensitive agent or tin ethyl-etiopurpurin (SnET2) were studied after subconjunctival injections (0,25,50,75 ug; 11 rabbits). Noninvasive measurements were made at 0, 0.5, 1, 2, 3 and 4 hr postinjection using a HeCd based laser fluorescence diagnostic system (excitation-442 nm; detection-670 nm SnET2 fluorescence; tissue autofluorescense-570 nm). SnET2 uptake was determined by an elevated 670/570 nm ratio. Preoperative injections (0, 25, 50 and 75 ug; 8 rabbits) of SnET2 were given and posterior lip sclerectomies were performed after 3-4 hrs followed by post operative laser irradiation (665 nm; 100 mW/cm^2; 30 J/cm^2). […] Self absorption of the fluorescence was present in the higher doses for the conjunctiva. Fluorescence ratios (T=3 hr) were as follows. The fluorescence ratios are shown below in Table 2. The tissue ratios were: conjunctiva/iris: 0 (control)=1.2; 25 ug=63+/-17; 50 ug=54+/-31; 75 ug=4+/-1.2. Conjunctiva/optical axis: 0 (control)=1.4; 25 ug=109+/-37; 50 ug=78+/-10; 75 ug=11+/-2.5.\nSome of the animals of the group shown in Table 2 and 3 were treated with 665 nanometers laser light at 100 milliwatt per square centimeter (30 Joules per square centimeter) exposure with 8 millimeter diameter spot three to four hours after the injection of the SnET2 following filtering surgery in the eye."}, "[1]": {"assay": "Noninvasive laser fluorescence (HeCd) measurement of SnET2 uptake and distribution in ocular tissues after subconjunctival injection", "format": "in vivo, rabbit", "details": "for Axis Fluorescence Ratio (670 nm/570 nm) / Conjunctiva Fluorescence Ratio (670 nm/570 nm) / Iris Fluorescence Ratio (670 nm/570 nm) / Ratio of Fluorescence (Conjuctiva/Axis) / Ratio of Fluorescence (Conjuctiva/Iris): 3 hr", "experimental": "as §1\nNoninvasive fluorescent measurements, using a HeCd laser, was made of the SnET2 to determine its uptake and distribution. Exposure of SnET2 with a HeCd laser, excites the tissue at 442 nanometers and detects 670 nanometer florescence for SnET2 and 570 nanometer for tissue autofluorescence. The higher the ratio (670 nm/570 nm), the higher the uptake. Measurements in the conjunctiva compared to the iris and of the conjunctiva as compared to the axis of the eye, namely the pupil, were compared three hours after injection. […] In this case the self-absorption of the 670 nm fluorescence by the SnET2 at such a high local concentration causes the intensity to actually decrease. […] This is also due to self-absorption. Note that for the iris and axis readings the signal does continue to increase with increasing injected dose due to the greater leakage into these areas of the eye with the higher injected doses. This is a negative, unwanted effect and is why the ratios of the conjuntiva/iris and conjuntiva/axis ratios decrease in Table 3. […] The decreased tissue ratios at the higher photosensitizer injection doses indicate lower specificity due to greater leakage from the injection site."}, "[2]": {"details": "25 μg subconjunctival, 3 animals"}, "[3]": {"details": "50 μg subconjunctival, 3 animals"}, "[4]": {"details": "75 μg subconjunctival, 5 animals"}}, "data": [{"smiles": "CCOC(=O)C1=Cc2c3nc(cc4nc(cc5[n-]c(cc6[n-]c2c(C)c6CC)c(C)c5CC)C(C)=C4CC)[C@@H](C)[C@]13CC.[Cl-].[Cl-].[Sn]", "note": "(racemic) [SnET2, tin ethyl-etiopurpurin]", "values": [{"measurement": "overall effect of photodynamic therapy on conjunctiva", "setting": "conjunctiva; 30 J/cm^2", "result": "titratable, localized, transient, post operative avascular conjunctiva"}, {"measurement": "avascular conjunctiva, post operative", "setting": "conjunctiva; SnET2 25, 50, 75 ug, 30 J/cm^2, 3-4 hrs after injection", "result": "large transient areas of avascular conjunctiva were produced"}, {"measurement": "limitation of avascular areas to filtering blebs", "setting": "conjunctiva; at 4 weeks, 30 J/cm^2", "result": "limitation of avascular areas to filtering blebs at 4 weeks"}, {"measurement": "Axis Fluorescence Ratio (670 nm/570 nm)", "setting": "[1]; [2]", "result": "0.26 +/- 0.03"}, {"measurement": "Conjunctiva Fluorescence Ratio (670 nm/570 nm)", "setting": "[1]; [2]", "result": "28.27 +/- 10.90"}, {"measurement": "Iris Fluorescence Ratio (670 nm/570 nm)", "setting": "[1]; [2]", "result": "0.44 +/- 0.08"}, {"measurement": "Ratio of Fluorescence (Conjuctiva/Axis)", "setting": "[1]; [2]", "result": "109+/-37"}, {"measurement": "Ratio of Fluorescence (Conjuctiva/Iris)", "setting": "[1]; [2]", "result": "63+/-17"}, {"measurement": "Axis Fluorescence Ratio (670 nm/570 nm)", "setting": "[1]; [3]", "result": "0.37 +/- 0.05"}, {"measurement": "Conjunctiva Fluorescence Ratio (670 nm/570 nm)", "setting": "[1]; [3]", "result": "31.70 +/- 8.60"}, {"measurement": "Iris Fluorescence Ratio (670 nm/570 nm)", "setting": "[1]; [3]", "result": "0.65 +/- 0.21"}, {"measurement": "Ratio of Fluorescence (Conjuctiva/Axis)", "setting": "[1]; [3]", "result": "78+/-10"}, {"measurement": "Ratio of Fluorescence (Conjuctiva/Iris)", "setting": "[1]; [3]", "result": "54+/-31"}, {"measurement": "Axis Fluorescence Ratio (670 nm/570 nm)", "setting": "[1]; [4]", "result": "1.30 +/- 0.90"}, {"measurement": "Iris Fluorescence Ratio (670 nm/570 nm)", "setting": "[1]; [4]", "result": "4.72 +/- 4.94"}, {"measurement": "Ratio of Fluorescence (Conjuctiva/Axis)", "setting": "[1]; [4]", "result": "11 +/- 2.5"}, {"measurement": "Ratio of Fluorescence (Conjuctiva/Iris)", "setting": "[1]; [4]", "result": "4 +/- 1.2"}, {"measurement": "Conjunctiva Fluorescence Ratio (670 nm/570 nm)", "setting": "[1]; 75 μg subconjunctival, 5 animals, self-absorption of fluorescence", "result": "15.14 +/- 13.60"}, {"measurement": "levels in the iris and optical axis", "setting": "[1]; subconjunctival injection", "result": "small, but detectable levels"}, {"measurement": "time of peak conjunctival fluorescence post injection", "setting": "[1]; subconjunctival injection", "result": 3, "unit": "h"}, {"measurement": "uptake and retention at the injection site (conjunctiva)", "setting": "[1]; subconjunctival injection", "result": "preferentially taken up and preferentially remains in the area of the injection, namely the conjunctiva"}]}]}
